From US11046690B2, “Pyridazinones and methods of use thereof” (Goldfinch Bio, Inc., priority 2018, dated 2021)

Legend:
TRPC5 = biological target: T1, TRPC5 (Homo sapiens, UniProt Q9UL62); experiment: TRPC5 activity assay (FLIPR calcium fluorescence, Riluzole stimulation); assay type: cell-based; conditions: HEK-TREx hTRPC5 cells, 30 μM Riluzole stimulation; read-out: TRPC5 (IC50 class)
T1 construct: expressed in transfected cells
T1 sequence (Q9UL62 1-973): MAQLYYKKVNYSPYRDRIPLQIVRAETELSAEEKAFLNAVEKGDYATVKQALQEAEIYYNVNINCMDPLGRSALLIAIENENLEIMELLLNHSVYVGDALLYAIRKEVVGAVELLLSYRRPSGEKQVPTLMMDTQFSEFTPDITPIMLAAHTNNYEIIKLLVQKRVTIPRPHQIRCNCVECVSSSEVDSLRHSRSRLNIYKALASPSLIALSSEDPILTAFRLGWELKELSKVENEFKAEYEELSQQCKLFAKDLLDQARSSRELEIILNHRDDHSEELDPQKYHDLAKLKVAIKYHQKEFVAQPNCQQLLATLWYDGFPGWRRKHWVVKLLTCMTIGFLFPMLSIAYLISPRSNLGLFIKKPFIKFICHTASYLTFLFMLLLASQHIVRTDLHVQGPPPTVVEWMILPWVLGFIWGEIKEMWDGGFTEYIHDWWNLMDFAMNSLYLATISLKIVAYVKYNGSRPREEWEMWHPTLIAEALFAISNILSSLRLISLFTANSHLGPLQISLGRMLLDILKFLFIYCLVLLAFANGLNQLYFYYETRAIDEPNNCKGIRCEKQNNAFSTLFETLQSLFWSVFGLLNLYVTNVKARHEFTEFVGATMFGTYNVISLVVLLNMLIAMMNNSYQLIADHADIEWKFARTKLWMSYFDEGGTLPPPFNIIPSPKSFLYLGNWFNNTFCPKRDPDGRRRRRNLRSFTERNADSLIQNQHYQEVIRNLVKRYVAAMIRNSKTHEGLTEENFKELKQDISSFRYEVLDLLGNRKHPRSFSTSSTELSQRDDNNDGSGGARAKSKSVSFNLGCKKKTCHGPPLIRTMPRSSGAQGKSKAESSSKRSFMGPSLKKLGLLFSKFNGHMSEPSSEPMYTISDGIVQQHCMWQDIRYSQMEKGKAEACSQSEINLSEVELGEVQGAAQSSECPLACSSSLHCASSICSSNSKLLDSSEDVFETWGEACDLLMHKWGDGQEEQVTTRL
Protocol: ICLN-1633 cells (HEK-TREx hTRPC5) expressing TRPC5 were generated as follows. Commercially available HekTrex-293 cells were seeded at 0.7×10^6 cells/well in a 1×6-well plate 24 hrs prior to transfection using 2 mL cell growth media containing no antibiotics (1× DMEM/high glucose (Hyclone #SH30022.02); 10% fetal bovine serum (Sigma) 2 mM sodium pyruvate, 10 mM HEPES). […] On day 2, 2 μg of plasmid DNA plus 6 μl of Xtreme-GENE HP reagent in Optimem (200 μl total volume) was prepared and incubated for 15 min at room temperature. This plasmid solution was then gently overlayed dropwise onto each well and the plate was gently swirled to mix complex with the media for approximately 30 seconds. Transfected cells were incubated at 37° C. in a 10%/CO2 incubator for 24 hrs. The transfected cells were harvested and transferred into 2×150 mm dishes containing cell growth media with no antibiotics at 37° C.
The next day selection was initiated to generate a stable pool by adding cell growth media containing 150 μg/mL Hygromycin and 5 μg/mL Blasticidin and cells were allowed to grow. Media with the selection agent was changed every 1-2 days as needed to remove dead cells. After 7 days, the hygromycin concentration was reduced to 75 μg/mL and cells growth was allowed to continue.
Single clones were selected as follows. The stable pool was diluted to 10 cells/mL and seeded (100 μl/well) into 24×96 well plates (˜1 cell/well) and allowed to grow for 7 days in cell growth media. Fresh media (100 μl) was added and the cells allowed to grow for another 1-2 weeks and then stored frozen or used immediately.
10-point dose response curves were generated using the Echo-550 acoustic dispenser. Compound source plates were made by serially diluting compound stocks to create 10 mM, 1 mM, and 0.1 mM solutions in DMSO into Echo certified LDV plates. The Echo then serially spotted 100%/DMSO stock solutions into source dose response plates to generate a 4-fold dilution scheme. 100%0/DMSO was added to the spotted dose response plates to bring the final volume to 5 μl. 300 nl of the dose response stock plate was then spotted into pre-incubation and stimulation assay plates. 50 μl of pre-incubation buffer and 100 μl of stimulation buffer was then added to the plates resulting in a final assay test concentration range of 30 μM to 0.0001 μM with a final DMSO concentration of 0.3%.
Human ICLN-1633 cells expressing were plated onto 384 well, black PDL-coated microplates and maintained in TRPC5 growth media the day prior to use for experiments. TRPC5 expression was induced by the application of 1 μg/mL tetracycline at the time of plating. […] Cells are incubated at room temperature, protected from light, for 60-90 minutes. After the incubation period, the dye is removed and replaced with 10 μl of EBSS. Cell, pre-incubation and stimulation plates are loaded onto the FLIPR-II and the assay is initiated. The FLIPR measures a 10 second baseline and then adds 10 μl of 2X compounds (or controls). Changes in fluorescence are monitored for an additional 5 minutes. After the 5 minute pre-incubation, 20 μl of 2X Riluzole (with 1X compound or controls) is added to the cell plate. The final Riluzole stimulation concentration in the assay is 30 μM. After the Riluzole addition, changes in fluorescence are monitored for an additional 5 minutes.
Compound modulation of TRPC5 calcium response was determined as follows. After the Englerin A, fluorescence was monitored for a 5-minute period. The maximum relative fluorescence response (minus the control response of 1 μM of an internal control compound known to maximally block TRPC5 calcium response, the “REF INHIB” in the formula below) was captured and exported from the FLIPR.
Compound effect is calculated as % inhibition using the following formula:
[formula] wherein “RFU” is the relative fluorescent units.

[1] = system: PAN induced glomerular kidney injury; experiment: Puromycin aminonucleoside (PAN)-induced glomerular injury in rats; assay type: in vivo, Sprague-Dawley rats; conditions: PAN-injured rats
Text: The objective of this study is to evaluate the dose-dependent effects of compound 100 on PAN induced glomerular kidney injury as indexed by albuminuria. Eighty (80), male Sprague-Dawley rats weighing approximately 125-150 g and approximately 5-6 weeks of age were acquired from Charles River. They were fed a standard chow diet (Harlan 8640), housed under standard conditions, and allowed to acclimate for at least 5 days prior to study inception. On D-2, rats were placed into weight-matched treatment groups and were placed, individually housed, into metabolic cages for the balance of the study. A 24 hour baseline (Day 0) urine was collected followed by a baseline blood collection via conscious tail venous puncture. Rats were then administered vehicle or test article. Two (2) hours following administration of vehicle or test agent on Day 0, rats received an administration of (5 ml/kg, s.c.) vehicle (sterile saline) or puromycin aminonucleoside (PAN; challenge agent; 75 mg/kg) dissolved in vehicle. Intermittent (Day 4, 7 and 10) 24 hour urine volumes were determined and samples (4 samples/animal/time point; 0.5 ml/sample) were obtained. Additionally, intermittent (Day 4, 7 and 10) blood samples were collected via conscious tail venous puncture 2 hours±1 minute post-AM dose. Immediately following the last blood collection, rats were anesthetized with isoflurane, tissues harvested, and animals sacrificed. Endpoint kidney weights and indices were obtained. Urine samples were immediately flash-frozen in liquid N2 and stored at −80° C. until analyzed. Whole blood samples collected on K3EDTA were processed appropriately for the production of plasma for PK measurements.

[2] = system: AT1R transgenic rat model of FSGS; experiment: AT1R transgenic rat model of FSGS; assay type: in vivo; conditions: AT1R transgenic rats, UniNX and AngII infusion, orally once daily 3 mg/kg or 10 mg/kg, up to 3 weeks
Protocol: The AT1R transgenic rat model of FSGS is characterized by podocyte-specific expression of human AT1R. […] See Zhou et al., Science (2017), vol. 358 (6368), 1332-1336. In the present study, pathophysiology in AT1R transgenic rats was accelerated with unilateral nephrectomy (UniNX) and minipump AngII infusion. Compound 100 was dosed orally once daily at 3 mg/kg or 10 mg/kg, and the urine protein creatinine ratio was determined at -1, 0, 1, 2, and 3 weeks of treatment. […] UniNX, AngII […], and compound 100 […] occurred at the time points indicated.

Compound | IC50 (TRPC5) | also measured
CC1Cc2c(ncnc2Oc2ccc(F)cc2Cl)CN1c1cn[nH]c(=O)c1Cl (single isomer, unassigned) [Compound 117a] | > 1000 nM | –
CC(c1ccc(F)cc1C(F)(F)F)c1ncnc2c1CCN(c1cn[nH]c(=O)c1Cl)C2 (single isomer, unassigned) [Compound 126, 4-Chloro-5-[4-[(1 S)-1-[4-fluoro-2-(trifluoromethyl)phenyl]ethyl]-5H,6H,7H,8H-pyrido[3,4-d]pyrimidin-7-yl]-2,3-dihydropyridazin-3-one] | < 50 nM | –
CC(c1ccc(F)cc1C(F)(F)F)c1ncnc2c1CCN(c1cn[nH]c(=O)c1Cl)C2 (single isomer, unassigned) [Compound 126a] | 50 to 500 nM | –
CC(O)c1nc2c(c(Oc3ccc(F)cc3C(F)(F)F)n1)CCN(c1cn[nH]c(=O)c1Cl)C2 (single isomer, unassigned) [Compound 129, 4-Chloro-5-[4-[4-fluoro-2-(trifluoromethyl)phenoxy]-2-[(1 S)-1-hydroxyethyl]-5H,6H,7H,8H-pyrido[3,4-d]pyrimidin-7-yl]-2,3-dihydropyridazin-3-one] | < 50 nM | –
CC(O)c1nc2c(c(Oc3ccc(F)cc3C(F)(F)F)n1)CCN(c1cn[nH]c(=O)c1Cl)C2 (single isomer, unassigned) [Compound 130] | < 50 nM | –
O=c1[nH]ncc(N2CCc3c(nc([C@@H](O)CO)nc3Oc3ccc(F)cc3C(F)(F)F)C2)c1Cl (single isomer, unassigned) [Compound 135] | < 50 nM | –
O=c1[nH]ncc(N2CCc3c(nc([C@H](O)CO)nc3Oc3ccc(F)cc3C(F)(F)F)C2)c1Cl (single isomer, unassigned) [Compound 137] | < 50 nM | –
O=c1[nH]ncc(N2CCc3c(ncnc3Oc3ccc(F)cc3C(F)(F)F)C2)c1Cl [Compound 100, 4-chloro-5-[4-[4-fluoro-2-(trifluoromethyl)phenoxy]-5H,6H,7H,8H-pyrido[3,4-d]pyrimidin-7-yl]-2,3-dihydropyridazin-3-one] | – | urinary albumin excretion ([1]; 30 mg/kg once daily (QD), at 10 days): Significant reductions; urinary albumin excretion ([1]; 30 mg/kg twice daily (BID), at 7 and 10 days): Significant reductions; urine protein creatinine ratio [2]: efficacious
NC(=O)c1ncn([C@@H]2O[C@H](CO)[C@@H](O)[C@H]2O)c1O [Mizoribine, reference compound] | – | albuminuria ([1]; positive control compound): efficacious in reducing albuminuria
